Data as given in patent US20230219965A1 (KSQ Therapeutics, Inc., priority 2020, published 2023).

Molecular target: USP1/UAF1 enzyme (Homo sapiens, UniProt O94782)
Test: USP1/UAF1 deubiquitination assay (ubiquitin-rhodamine 110 substrate)
Format: biochemical
Conditions: read-out: USP1 IC50 (Ub-Rho)
Method: Certain Compounds of the Disclosure were assessed for USP1/UAF1 activity in a Ubiquitin Rhodamine assay modified from those described previously.
Deubiquitinase activity was measured using ubiquitin-rhodamine 110 as a substrate. Cleavage of the amide bond between rhodamine and the c-terminal glycine of ubiquitin yields an increase in fluorescence signal. The assay was conducted in 20 μl total volume of assay buffer (50 mM Tris-HCl, pH 7.8, 0.5 mM EDTA, 0.01% Bovine Serum Albumin, 1 mM DTT, 0.01% Tween-20), and 0.05 nM USP1/UAF1 enzyme. Reaction was initiated by addition of 150 nM Ubiquitin-rhodamine (Boston Biochem) substrate.
Compounds of the Disclosure, dissolved in DMSO were tested in dose response format, beginning at […].
The example compounds listed below were added to enzyme/assay buffer mix and incubated 10 min. Substrate mix was added, and reaction mix was read in kinetic mode for 30 min at Ex480/Em540 and IC50 response curves were plotted.
Data for all assay formats was calculated as percent inhibition compared with control wells. Percent inhibition was calculated using the following equation: % inhibition=100×[1−(X−min)/(max−min)], where X is the raw data readout, min is the average of the no enzyme control wells (n=32), max is the average of the DMSO control well (n=32). IC50 values were calculated using the standard four parameter curve fitting algorithm in either Prism GraphPad (La Jolla, Calif.) software, or Collaborative Drug Discovery (Burlingame, Calif.) CDD Vault. See Chem. Biol. 20(1): 55-62 (Jan. 24, 2013); Bioorg. Med. Chem. Lett. 23(20): 5660-5666 (Oct. 15, 2013).

USP1/UAF1 enzyme, sequence (O94782 whole entry): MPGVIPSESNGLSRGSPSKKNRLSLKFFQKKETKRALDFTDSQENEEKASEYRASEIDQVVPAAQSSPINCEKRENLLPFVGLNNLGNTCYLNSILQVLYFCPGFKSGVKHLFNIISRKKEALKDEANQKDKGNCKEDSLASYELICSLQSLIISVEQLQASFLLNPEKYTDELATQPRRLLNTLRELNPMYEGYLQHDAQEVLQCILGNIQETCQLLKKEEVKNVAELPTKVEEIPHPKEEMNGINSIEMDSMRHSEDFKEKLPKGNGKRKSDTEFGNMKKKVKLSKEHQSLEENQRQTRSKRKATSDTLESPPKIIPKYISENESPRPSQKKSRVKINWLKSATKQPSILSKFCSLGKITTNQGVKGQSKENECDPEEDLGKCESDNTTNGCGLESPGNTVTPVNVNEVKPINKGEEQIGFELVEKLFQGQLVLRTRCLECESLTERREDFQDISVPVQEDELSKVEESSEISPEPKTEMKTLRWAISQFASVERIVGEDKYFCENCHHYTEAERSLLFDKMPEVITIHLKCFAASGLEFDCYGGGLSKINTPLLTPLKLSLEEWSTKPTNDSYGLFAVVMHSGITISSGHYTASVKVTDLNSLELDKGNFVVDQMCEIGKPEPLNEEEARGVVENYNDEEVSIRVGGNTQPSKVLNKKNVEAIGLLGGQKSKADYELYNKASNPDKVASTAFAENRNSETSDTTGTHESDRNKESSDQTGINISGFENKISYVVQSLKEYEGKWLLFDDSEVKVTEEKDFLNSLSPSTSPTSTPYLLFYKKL
USP1/UAF1 enzyme, sequence (Q8TAF3 whole entry partner): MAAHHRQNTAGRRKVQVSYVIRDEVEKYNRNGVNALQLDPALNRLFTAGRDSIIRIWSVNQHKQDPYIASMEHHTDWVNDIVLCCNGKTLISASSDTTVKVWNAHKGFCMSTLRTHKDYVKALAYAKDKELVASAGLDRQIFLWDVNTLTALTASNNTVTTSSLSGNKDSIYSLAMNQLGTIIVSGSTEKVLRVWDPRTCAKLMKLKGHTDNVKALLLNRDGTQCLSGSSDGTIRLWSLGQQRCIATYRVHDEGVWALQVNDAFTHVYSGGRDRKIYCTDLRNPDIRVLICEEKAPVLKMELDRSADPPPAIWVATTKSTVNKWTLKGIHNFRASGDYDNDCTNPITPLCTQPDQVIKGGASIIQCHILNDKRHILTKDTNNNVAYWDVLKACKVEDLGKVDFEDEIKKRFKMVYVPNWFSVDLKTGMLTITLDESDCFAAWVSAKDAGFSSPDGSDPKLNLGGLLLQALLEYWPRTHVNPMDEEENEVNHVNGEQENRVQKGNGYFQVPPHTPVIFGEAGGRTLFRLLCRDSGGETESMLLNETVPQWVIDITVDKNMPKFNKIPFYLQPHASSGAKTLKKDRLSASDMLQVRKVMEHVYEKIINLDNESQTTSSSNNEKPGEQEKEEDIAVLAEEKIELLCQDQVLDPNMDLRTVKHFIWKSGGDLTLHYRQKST

| SMILES | IC50 [nM] |
| --- | --- |
| CC(C)n1ncc(Cl)c1-c1cc2n(n1)CCC(=O)N2Cc1ccc(-c2ncccc2OC(F)F)c(Cl)c1 [Example 271, 2-(4-chloro-1-isopropyl-1H-pyrazol-5-yl)-4-(3-chloro-4-(3-(difluoromethoxy)pyridin-2-yl)benzyl)-6,7-dihydropyrazolo[1,5-α]pyrimidin-5(4H)-one] | 100 to 500 |
| CC(C)n1ncc(Cl)c1-c1cc2n(n1)CCC(=O)N2Cc1ccc(-c2cncc(C(F)(F)F)n2)c(Cl)c1 [Example 272] | > 500 |
| Cc1cn2ccnc(-c3ccc(CN4C(=O)CCn5nc(-c6c(Cl)cnn6C(C)C)cc54)cc3Cl)c2n1 [Example 275] | 100 to 500 |
| CC(C)n1ncc(Cl)c1-c1cc2n(n1)CCC(=O)N2Cc1ccc(-c2ncnn3cccc23)c(Cl)c1 [Example 276] | 100 to 500 |
| Cc1nc(-c2ccc(CN3C(=O)CCn4nc(-c5c(Cl)cnn5C(C)C)cc43)cc2Cl)cn1C [Example 277] | > 500 |
| CC(C)n1ncc(Cl)c1-c1cc2n(n1)CCC(=O)N2Cc1ccc(-c2ncccc2OC(F)(F)F)c(Cl)c1 [Example 279] | > 500 |
| Cc1ccn2ncnc(-c3ccc(CN4C(=O)CCn5nc(-c6c(Cl)cnn6C(C)C)cc54)cc3Cl)c12 [Example 280] | > 500 |
| Cc1cc(-c2ccc(CN3C(=O)CCn4nc(-c5c(Cl)cnn5C(C)C)cc43)cc2Cl)n(C)n1 [Example 281] | > 500 |
| Cc1ccc(F)c(-c2ccc(CN3C(=O)CCn4nc(-c5c(Cl)cnn5C(C)C)cc43)cc2Cl)n1 [Example 282] | > 500 |
| CC(C)n1ncc(Cl)c1-c1cc2n(n1)CCC(=O)N2Cc1ccc(-c2ncccc2C(F)(F)F)c(Cl)c1 [Example 283] | > 500 |
| Cc1ncc(-c2ccc(CN3C(=O)CCn4nc(-c5c(Cl)cnn5C(C)C)cc43)cc2Cl)n1C [Example 284] | > 500 |
| CC(C)n1ncc(Cl)c1-c1cc2n(n1)CCC(=O)N2Cc1ccc(-c2nn(C)cc2C#N)c(Cl)c1 [Example 287] | > 500 |
| Cc1nn(C)c(C)c1-c1ccc(CN2C(=O)CCn3nc(-c4c(Cl)cnn4C(C)C)cc32)cc1Cl [Example 289] | > 500 |
| COc1cn(C)nc1-c1ccc(CN2C(=O)CCn3nc(-c4c(Cl)cnn4C(C)C)cc32)cc1Cl [Example 292] | 100 to 500 |
| COc1ncnc(C2CC2)c1-c1nc2n(n1)CCC(=O)N2Cc1ccc(-c2ncccc2OC(C)C)c(Cl)c1 [Example 295] | 100 to 500 |
| CC(C)n1cc(F)nc1-c1ccc(CN2C(=O)CCn3nc(-c4c(Cl)cnn4C(C)C)cc32)cc1Cl [Example 297] | 100 to 500 |
| CC(C)n1ncc(Cl)c1-c1cc2n(n1)CCC(=O)N2Cc1ccc(-c2nccc3c2N(C)CCO3)c(Cl)c1 [Example 299] | > 500 |
| CC(C)Oc1cccnc1-c1ccc(CN2C(=O)CCn3nc(-c4c(Cl)cnn4C(C)C)nc32)cc1Cl [Example 302] | 100 to 500 |

Results, then the compound that gave them:

| IC50 [nM] | SMILES |
| --- | --- |
| > 500 | CC(C)n1ncc(Cl)c1-c1cc2n(n1)CCC(=O)N2Cc1ccc(-c2nccc(C(F)(F)F)n2)c(Cl)c1 [Example 273] |
| 100 to 500 | COc1nccnc1-c1ccc(CN2C(=O)CCn3nc(-c4c(Cl)cnn4C(C)C)cc32)cc1Cl [Example 274] |
| > 500 | Cc1ccnnc1-c1ccc(CN2C(=O)CCn3nc(-c4c(Cl)cnn4C(C)C)cc32)cc1Cl [Example 278] |
| > 500 | COc1ccc(-c2ccc(CN3C(=O)CCn4nc(-c5c(Cl)cnn5C(C)C)cc43)cc2Cl)nc1 [Example 285] |
| > 500 | COc1ccnc(-c2ccc(CN3C(=O)CCn4nc(-c5c(Cl)cnn5C(C)C)cc43)cc2Cl)n1 [Example 286] |
| > 500 | COc1ccnnc1-c1ccc(CN2C(=O)CCn3nc(-c4c(Cl)cnn4C(C)C)cc32)cc1Cl [Example 293] |
| 100 to 500 | COc1c(C)ccnc1-c1ccc(CN2C(=O)CCn3nc(-c4c(Cl)cnn4C(C)C)cc32)cc1Cl [Example 298] |
| 100 to 500 | COCc1cccnc1-c1ccc(CN2C(=O)CCn3nc(-c4c(Cl)cnn4C(C)C)cc32)cc1Cl [Example 300] |
| 100 to 500 | COc1cc(C)cnc1-c1ccc(CN2C(=O)CCn3nc(-c4c(Cl)cnn4C(C)C)cc32)cc1Cl [Example 301] |
